Laboratory results: ChEMBL document CHEMBL1201862, “PubChem BioAssay data set” (2004)
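1) Cells in 96-well plates. 2) Compound, 48 h, 5 concentrations. 3) Linear interpolation between surrounding doses. 4) Unreached endpoint = highest concentration. GI50: concentration for 50% inhibition of growth.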 Active and inactive are the calls of the source. No stated cut-off is given here; in the data, active = GI50 up to about 1.1 µM and inactive = higher.

Columns and labels:
Assay in all cases: DTP human tumour cell line panel, 48 h
KM12 = test system: KM12
NCI-H460 = test system: NCI-H460
LXFL 529 = test system: LXFL 529
SF-539 = test system: SF-539
M19-MEL = test system: M19-MEL
SF-295 = test system: SF-295
MOLT-4 = test system: MOLT-4
NCI-H226 = test system: NCI-H226
786-0 = test system: 786-0
HT-29 = test system: HT-29
HL-60 = test system: HL-60
HOP-92 = test system: HOP-92
CCRF-CEM = test system: CCRF-CEM
SK-MEL-5 = test system: SK-MEL-5
HCC 2998 = test system: HCC 2998
SN12C = test system: SN12C
SNB-75 = test system: SNB-75

Measured: GI50

CC(=O)Nc1ccccc1Sc1ccccc1
inactive: KM12 > 100 µM | NCI-H460 > 100 µM | LXFL 529 > 100 µM | SF-539 > 100 µM | M19-MEL > 100 µM | SF-295 > 100 µM | MOLT-4 > 100 µM | NCI-H226 > 100 µM | 786-0 > 100 µM | HT-29 > 100 µM | HL-60 > 100 µM | HOP-92 69.8 µM | CCRF-CEM > 100 µM | SK-MEL-5 > 100 µM | HCC 2998 > 100 µM | SN12C > 100 µM | SNB-75 39.3 µM

CCOC(=O)CC1=N/C(=N/C(=N)N[N+](=O)[O-])SC1
inactive: KM12 > 100 µM | NCI-H460 > 100 µM | LXFL 529 > 100 µM | SF-539 > 100 µM | M19-MEL > 100 µM | SF-295 > 100 µM | NCI-H226 > 100 µM | 786-0 > 100 µM | HT-29 > 100 µM | HL-60 > 100 µM | HOP-92 > 100 µM | CCRF-CEM > 100 µM | SK-MEL-5 > 100 µM | HCC 2998 > 100 µM | SN12C > 100 µM | SNB-75 > 100 µM

Cc1ccc(C(=O)C(C2=Nc3nnc(N)n3C2=O)C2=Nc3nnc(N)n3C2=O)cc1
inactive: KM12 > 100 µM | NCI-H460 > 100 µM | LXFL 529 > 100 µM | SF-539 > 100 µM | M19-MEL > 100 µM | SF-295 > 100 µM | MOLT-4 > 100 µM | NCI-H226 > 100 µM | 786-0 > 100 µM | HT-29 > 100 µM | HL-60 > 100 µM | HOP-92 > 100 µM | CCRF-CEM > 100 µM | SK-MEL-5 > 100 µM | HCC 2998 > 100 µM | SN12C > 100 µM | SNB-75 > 100 µM

O=C1C2C(C(=O)N1O)N(Cc1ccccc1)C(=O)N2Cc1ccccc1 (stereo unspecified)
inactive: KM12 > 100 µM | NCI-H460 > 100 µM | LXFL 529 > 100 µM | SF-539 > 100 µM | M19-MEL > 100 µM | SF-295 > 100 µM | MOLT-4 > 100 µM | NCI-H226 > 100 µM | 786-0 > 100 µM | HT-29 > 100 µM | HL-60 > 100 µM | HOP-92 > 100 µM | CCRF-CEM > 100 µM | SK-MEL-5 > 100 µM | HCC 2998 > 100 µM | SN12C > 100 µM | SNB-75 > 100 µM

CC(C)C(=O)Nc1nc2c(ncn2C2OC(CO)C(O)C2O)c(=O)[nH]1 (stereo unspecified)
inactive: KM12 > 100 µM | NCI-H460 > 100 µM | LXFL 529 > 100 µM | SF-539 > 100 µM | M19-MEL > 100 µM | SF-295 > 100 µM | MOLT-4 > 100 µM | NCI-H226 > 100 µM | 786-0 > 100 µM | HT-29 > 100 µM | HL-60 > 100 µM | HOP-92 > 100 µM | CCRF-CEM > 100 µM | SK-MEL-5 > 100 µM | HCC 2998 > 100 µM | SN12C > 100 µM | SNB-75 > 100 µM

C/C(=C\C(=O)Nc1ccc2[nH]nnc2c1)Nc1ccc2[nH]nnc2c1
inactive: KM12 > 100 µM | NCI-H460 > 100 µM | LXFL 529 > 100 µM | SF-539 > 100 µM | M19-MEL > 100 µM | SF-295 > 100 µM | MOLT-4 > 100 µM | NCI-H226 > 100 µM | 786-0 > 100 µM | HT-29 > 100 µM | HL-60 > 100 µM | HOP-92 > 100 µM | CCRF-CEM > 100 µM | SK-MEL-5 > 100 µM | HCC 2998 > 100 µM | SN12C > 100 µM | SNB-75 > 100 µM

NC(=O)N1N=C2c3ccccc3OC[C@H]2[C@@H]1c1ccccc1
inactive: KM12 9.31 µM | NCI-H460 13.2 µM | LXFL 529 31 µM | SF-539 3.92 µM | M19-MEL 49.7 µM | SF-295 4.21 µM | MOLT-4 29.5 µM | NCI-H226 22.5 µM | 786-0 5.02 µM | HT-29 27.6 µM | HL-60 22.6 µM | HOP-92 13.8 µM | CCRF-CEM 13.4 µM | SK-MEL-5 1.91 µM | HCC 2998 10.7 µM | SN12C 23.9 µM | SNB-75 16.6 µM

O=[N+]([O-])c1ccc(-n2nnc(C3=NCCCN3)c2-c2ccc(Cl)cc2)cc1
inactive: KM12 > 100 µM | NCI-H460 > 100 µM | LXFL 529 > 100 µM | SF-539 > 100 µM | M19-MEL 69.5 µM | SF-295 > 100 µM | MOLT-4 79.3 µM | NCI-H226 > 100 µM | 786-0 > 100 µM | HT-29 58.5 µM | HL-60 46.3 µM | HOP-92 > 100 µM | CCRF-CEM > 100 µM | SK-MEL-5 82.2 µM | HCC 2998 > 100 µM | SN12C > 100 µM | SNB-75 > 100 µM

CN(C)c1ccc2nc3c(ccc4ccccc43)[o+]c2c1
inactive: KM12 15 µM | NCI-H460 16.2 µM | LXFL 529 6.53 µM | SF-539 18.2 µM | M19-MEL 3.03 µM | SF-295 15.5 µM | MOLT-4 2.99 µM | NCI-H226 17.7 µM | 786-0 15.5 µM | HT-29 15.3 µM | HL-60 1.95 µM | HOP-92 18.3 µM | CCRF-CEM 3.17 µM | SK-MEL-5 13.4 µM | HCC 2998 17.5 µM | SN12C 17.1 µM | SNB-75 17.5 µM

COc1ccc2c(c1)CCc1c(-c3n[nH]c4c3CCc3cc(OC)ccc3-4)n[nH]c1-2
inactive: KM12 33.9 µM | NCI-H460 39 µM | LXFL 529 33.1 µM | SF-539 24.1 µM | M19-MEL 33 µM | SF-295 17.2 µM | MOLT-4 58.6 µM | NCI-H226 28.8 µM | 786-0 19 µM | HT-29 33.2 µM | HL-60 27.5 µM | HOP-92 30.8 µM | CCRF-CEM 26.1 µM | SK-MEL-5 30.8 µM | HCC 2998 > 100 µM | SN12C 57.4 µM | SNB-75 23.3 µM

CC(C)(O)[C@@H]1CCC(C)([C@H]2[C@@H](O)CC3(C)C4CC(OC5OC(CO)C(O)C(O)C5O)C5C(C)(C)[C@@H](OC6OCC(O)C(O)C6O)CC[C@@]56C[C@@]46CC[C@]23C)O1 (stereo partly specified)
inactive: KM12 > 100 µM | NCI-H460 > 100 µM | LXFL 529 > 100 µM | SF-539 > 100 µM | M19-MEL > 100 µM | SF-295 > 100 µM | MOLT-4 > 100 µM | NCI-H226 > 100 µM | 786-0 > 100 µM | HT-29 > 100 µM | HL-60 > 100 µM | HOP-92 > 100 µM | CCRF-CEM > 100 µM | SK-MEL-5 > 100 µM | HCC 2998 > 100 µM | SN12C > 100 µM | SNB-75 > 100 µM
